Data: article PMC8325362, “Drugs repurposed for COVID-19 by virtual screening of 6,218 drugs and cell-based assay” (Proceedings of the National Academy of Sciences of the …, 2021)
Like-named read-outs stand apart in the source and are kept apart here.

What was measured:
SARS-CoV-2 [1] = test: microbe, parasite or virus in culture; type: cell-based
[2] = Cytotoxicity (CC50) in Calu-3 cells; details: human
[3] = human, cited from earlier work
SARS-CoV-2 [4] = test: microbe, parasite or virus in culture; details: Severe acute respiratory syndrome coronavirus 2, Vero, 24 h, read-out: SARS-CoV-2 IC50 in Vero cells
M^pro = M^pro (Severe acute respiratory syndrome coronavirus 2, UniProt P0DTD1); type: biochemical; details: FRET assay, 0.1 to 50 μM
[5] = Cytotoxicity (CC50) in Vero cells; details: African green monkey
in vitro [6] = details: human
in vitro [7] = details: African green monkey
SARS-CoV-2 [8] = details: for antiviral activity against SARS-CoV-2 in Vero cells: assay validation with reference drugs
SARS-CoV-2 [9] = test: Checkerboard drug combination assay, SARS-CoV-2 inhibition in Vero cells; type: cell-based; details: Severe acute respiratory syndrome coronavirus 2, Vero, read-out: Relative viral inhibition (%); for inhibition at 0.03 µM: Omipalisib 0.03 μM; for inhibition at 0.06 µM: Omipalisib 0.06 μM; for inhibition at 0.12 µM: Omipalisib 0.12 μM; for inhibition at 0.25 µM: Omipalisib 0.25 μM; for inhibition at 0.49 µM: Omipalisib 0.49 μM; for inhibition at 0.98 µM: Omipalisib 0.98 μM; for inhibition at 1.97 µM: Omipalisib 1.97 μM; for inhibition at 0.69 µM: Tipifarnib 0.69 μM; for inhibition at 1.38 µM: Tipifarnib 1.38 μM; for inhibition at 2.75 µM: Tipifarnib 2.75 μM; for inhibition at 5.5 µM: Tipifarnib 5.50 μM; for inhibition at 11 µM: Tipifarnib 11.00 μM; for inhibition at 22.01 µM: Tipifarnib 22.01 μM; for inhibition at 44.02 µM: Tipifarnib 44.02 μM
in vitro [10] = details: African green monkey, Relative cell viability (%)
SARS-CoV-2 [11] = test: in vitro; details: African green monkey
[12] = Severe acute respiratory syndrome coronavirus 2, Calu-3, 24 h, Calu-3 cells, MOI 0.5, 24 h
[13] = read-out: Approx. Cmax (maximum serum concentration), oral

Structure (SMILES): CCN1CCN(c2cc(-c3ccc(F)cc3)c3c(n2)CCCCCC3)CC1 [Blonanserin]
- IC50 (SARS-CoV-2 [1]; [12]): > 50 µM
- CC50 at 24 h [2]: > 50 µM
- Cmax [3, 13]: ~3 nM
- IC50 (SARS-CoV-2 [4]): 12 µM
- inhibitory activity against M^pro (M^pro): showed inhibitory activities
- CC50 at 24 h [5]: 30.3 µM

Structure (SMILES): Cc1cc(O)c2c(=O)c3c(O)cc(O)c4c5c(O)cc(O)c6c(=O)c7c(O)cc(C)c8c1c2c(c34)c(c78)c65 [Hypericin]
- IC50 (SARS-CoV-2 [1]; Severe acute respiratory syndrome coronavirus 2, Calu-3, 24 h, read-out: SARS-CoV-2 IC50 in Calu-3 cells): > 50 µM
- Cmax [3, 13]: ~8 nM
- CC50 (in vitro [6]): > 50 µM
- IC50 (SARS-CoV-2 [4]): 19.3 µM
- CC50 (in vitro [7]): > 50 µM

Structure (SMILES): O=C(Nc1cc(C(F)(F)F)cc(C(F)(F)F)c1)Nc1ccc(Br)cc1-c1nnn[nH]1 [NS-3728]
- IC50 (SARS-CoV-2 [1]; [12]): > 50 µM
- Cmax ([3]; in vivo, po): ~36500 nM
- CC50 at 24 h (in vitro [6]): > 50 µM
- IC50 (SARS-CoV-2 [4]): 28.4 µM
- CC50 at 24 h (in vitro [7]): > 50 µM

Structure (SMILES): COc1ncc(-c2ccc3nccc(-c4ccnnc4)c3c2)cc1NS(=O)(=O)c1ccc(F)cc1F [Omipalisib]
- fold higher antiviral activity than remdesivir (SARS-CoV-2 [8]; Vero cells): 20 fold
- fold higher activity than remdesivir (SARS-CoV-2 [1]; Calu-3): 200 fold
- IC50 (SARS-CoV-2 [1]; Calu-3 cells, MOI 0.5, 24 h): 0.01 µM
- fold lower IC50 in Calu-3 cells than in Vero cells (SARS-CoV-2 [1]; Calu-3 vs Vero): 49 fold
- IC50 (SARS-CoV-2 [1]; [12]): 0.01 µM
- Cmax ([3]; in vivo, po): ~300 nM
- CC50 at 24 h (in vitro [6]): > 0.02 µM
- inhibition at 0.03 µM (SARS-CoV-2 [9]; Fig. 4A, Remdesivir 0.00 μM): 6%
- inhibition at 0.06 µM (SARS-CoV-2 [9]; Fig. 4A, Remdesivir 0.00 μM): 6%
- inhibition at 0.12 µM (SARS-CoV-2 [9]; Fig. 4A, Remdesivir 0.00 μM): 15%
- inhibition at 0.25 µM (SARS-CoV-2 [9]; Fig. 4A, Remdesivir 0.00 μM): 29%
- inhibition at 0.49 µM (SARS-CoV-2 [9]; Fig. 4A, Remdesivir 0.00 μM): 63%
- inhibition at 0.98 µM (SARS-CoV-2 [9]; Fig. 4A, Remdesivir 0.00 μM): 73%
- inhibition at 1.97 µM (SARS-CoV-2 [9]; Fig. 4A, Remdesivir 0.00 μM): 78%
- inhibition at 0.03 µM (SARS-CoV-2 [9]; Fig. 4D, Tipifarnib 0.00 μM): 11%
- inhibition at 0.06 µM (SARS-CoV-2 [9]; Fig. 4D, Tipifarnib 0.00 μM): 31%
- inhibition at 0.12 µM (SARS-CoV-2 [9]; Fig. 4D, Tipifarnib 0.00 μM): 60%
- inhibition at 0.25 µM (SARS-CoV-2 [9]; Fig. 4D, Tipifarnib 0.00 μM): 90%
- inhibition at 0.49 µM (SARS-CoV-2 [9]; Fig. 4D, Tipifarnib 0.00 μM): 93%
- inhibition at 0.98 µM (SARS-CoV-2 [9]; Fig. 4D, Tipifarnib 0.00 μM): 95%
- inhibition at 1.97 µM (SARS-CoV-2 [9]; Fig. 4D, Tipifarnib 0.00 μM): 95%
- IC50 (SARS-CoV-2 [4]): 0.49 µM
- inhibitory activity against M^pro (M^pro): showed no inhibitory activity
- viability (in vitro [10]; Fig. 4B, Omipalisib 0.03 μM, Remdesivir 0.00 μM): 82%
- viability (in vitro [10]; Fig. 4B, Omipalisib 0.06 μM, Remdesivir 0.00 μM): 82%
- viability (in vitro [10]; Fig. 4B, Omipalisib 0.12 μM, Remdesivir 0.00 μM): 80%
- viability (in vitro [10]; Fig. 4B, Omipalisib 0.25 μM, Remdesivir 0.00 μM): 81%
- viability (in vitro [10]; Fig. 4B, Omipalisib 0.49 μM, Remdesivir 0.00 μM): 80%
- viability (in vitro [10]; Fig. 4B, Omipalisib 0.98 μM, Remdesivir 0.00 μM): 81%
- viability (in vitro [10]; Fig. 4B, Omipalisib 1.97 μM, Remdesivir 0.00 μM): 80%
- viability (in vitro [10]; Fig. 4E, Tipifarnib 0.00 μM, Omipalisib 0.03 μM): 87%
- viability (in vitro [10]; Fig. 4E, Tipifarnib 0.00 μM, Omipalisib 0.06 μM): 89%
- viability (in vitro [10]; Fig. 4E, Tipifarnib 0.00 μM, Omipalisib 0.12 μM): 88%
- viability (in vitro [10]; Fig. 4E, Tipifarnib 0.00 μM, Omipalisib 0.25 μM): 88%
- viability (in vitro [10]; Fig. 4E, Tipifarnib 0.00 μM, Omipalisib 0.49 μM): 88%
- viability (in vitro [10]; Fig. 4E, Tipifarnib 0.00 μM, Omipalisib 0.98 μM): 87%
- viability (in vitro [10]; Fig. 4E, Tipifarnib 0.00 μM, Omipalisib 1.97 μM): 84%
- selectivity ratio (SARS-CoV-2 [11]): 62.8
- CC50 at 24 h (in vitro [7]): 30.8 µM

Structure (SMILES): Cn1cncc1[C@@](N)(c1ccc(Cl)cc1)c1ccc2c(c1)c(-c1cccc(Cl)c1)cc(=O)n2C [Tipifarnib]
- IC50 (SARS-CoV-2 [1]; [12]): 4.57 µM
- CC50 at 24 h [2]: > 50 µM
- Cmax [3, 13]: ~8600 nM
- inhibition at 0.69 µM (SARS-CoV-2 [9]; Fig. 4D, Omipalisib 0.00 μM): 4%
- inhibition at 1.38 µM (SARS-CoV-2 [9]; Fig. 4D, Omipalisib 0.00 μM): 4%
- inhibition at 2.75 µM (SARS-CoV-2 [9]; Fig. 4D, Omipalisib 0.00 μM): 6%
- inhibition at 5.5 µM (SARS-CoV-2 [9]; Fig. 4D, Omipalisib 0.00 μM): 11%
- inhibition at 11 µM (SARS-CoV-2 [9]; Fig. 4D, Omipalisib 0.00 μM): 91%
- inhibition at 22.01 µM (SARS-CoV-2 [9]; Fig. 4D, Omipalisib 0.00 μM): 100%
- inhibition at 44.02 µM (SARS-CoV-2 [9]; Fig. 4D, Omipalisib 0.00 μM): 92%
- inhibition at 0.69 µM (SARS-CoV-2 [9]; Fig. 4G, Remdesivir 0.00 μM): 0%
- inhibition at 1.38 µM (SARS-CoV-2 [9]; Fig. 4G, Remdesivir 0.00 μM): 0%
- inhibition at 2.75 µM (SARS-CoV-2 [9]; Fig. 4G, Remdesivir 0.00 μM): 0%
- inhibition at 5.5 µM (SARS-CoV-2 [9]; Fig. 4G, Remdesivir 0.00 μM): 10%
- inhibition at 11 µM (SARS-CoV-2 [9]; Fig. 4G, Remdesivir 0.00 μM): 93%
- inhibition at 22.01 µM (SARS-CoV-2 [9]; Fig. 4G, Remdesivir 0.00 μM): 100%
- inhibition at 44.02 µM (SARS-CoV-2 [9]; Fig. 4G, Remdesivir 0.00 μM): 87%
- IC50 (SARS-CoV-2 [4]): 11 µM
- viability (in vitro [10]; Fig. 4E, Tipifarnib 0.69 μM, Omipalisib 0.00 μM): 90%
- viability (in vitro [10]; Fig. 4E, Tipifarnib 1.38 μM, Omipalisib 0.00 μM): 91%
- viability (in vitro [10]; Fig. 4E, Tipifarnib 2.75 μM, Omipalisib 0.00 μM): 90%
- viability (in vitro [10]; Fig. 4E, Tipifarnib 5.50 μM, Omipalisib 0.00 μM): 91%
- viability (in vitro [10]; Fig. 4E, Tipifarnib 11.00 μM, Omipalisib 0.00 μM): 76%
- viability (in vitro [10]; Fig. 4E, Tipifarnib 22.01 μM, Omipalisib 0.00 μM): 7%
- viability (in vitro [10]; Fig. 4E, Tipifarnib 44.02 μM, Omipalisib 0.00 μM): 0%
- viability (in vitro [10]; Fig. 4H, Tipifarnib 0.69 μM, Remdesivir 0.00 μM): 91%
- viability (in vitro [10]; Fig. 4H, Tipifarnib 1.38 μM, Remdesivir 0.00 μM): 90%
- viability (in vitro [10]; Fig. 4H, Tipifarnib 2.75 μM, Remdesivir 0.00 μM): 89%
- viability (in vitro [10]; Fig. 4H, Tipifarnib 5.50 μM, Remdesivir 0.00 μM): 88%
- viability (in vitro [10]; Fig. 4H, Tipifarnib 11.00 μM, Remdesivir 0.00 μM): 80%
- viability (in vitro [10]; Fig. 4H, Tipifarnib 22.01 μM, Remdesivir 0.00 μM): 6%
- viability (in vitro [10]; Fig. 4H, Tipifarnib 44.02 μM, Remdesivir 0.00 μM): 0%
- CC50 at 24 h [5]: 16.6 µM

Structure (SMILES): CCN(CC)CCCC(C)Nc1ccnc2cc(Cl)ccc12 (stereo not drawn) [chloroquine]
- antiviral activity against SARS-CoV-2 in Vero cells (SARS-CoV-2 [8]): showed antiviral activity

Structure (SMILES): Cc1cccc(C)c1OCC(=O)N[C@@H](Cc1ccccc1)[C@@H](O)C[C@H](Cc1ccccc1)NC(=O)[C@H](C(C)C)N1CCCNC1=O [lopinavir]
- antiviral activity against SARS-CoV-2 in Vero cells (SARS-CoV-2 [8]): showed antiviral activity
